Common to all, as to experiment: In vitro combination studies, CellTitre-Glo cell viability
In one test the test system is KG-1. The note with it: KG-1; in combination with Compound 1.
The subject of the next test is HNT-34. The note with it: HNT-34; in combination with Compound 1.
In another test the test system is MOLM-13. The note with it: MOLM-13; in combination with Compound 1.
In another test the test system is HL-60. To be noted: HL-60; in combination with Compound 1.
A further test deals with OCI-AML-2. The note with it: OCI-AML-2; in combination with Compound 1.
For the next test, the system named is MV-4-11. The note with it: MV-4-11; in combination with Compound 1.
For another test, the system named is OCT-AML-3. To be noted: OCI-AML-3; in combination with Compound 1.
A further test deals with NOMO-1. To be noted: NOMO-1; in combination with Compound 1.
In another test the test system is ML-2. To be noted: ML-2; in combination with Compound 1.
The next test concerns F-36-P. The note with it: F-36-P; in combination with Compound 1.

SMILES strings stand for the structures.

Turning to `COc1ccc(-c2ccc3c(N4CCOC[C@@H]4C)nc(N4CCOC[C@@H]4C)nc3n2)cc1CO` [AZD8055], the “Synergy analysis for combinations with Compound 1” value (from here on “Synergy analysis for combinations”) in the test with KG-1 is “No”; with HNT-34 it was “No”; with MOLM-13, “Yes”; in the test with HL-60 it was “No”; in the test on OCI-AML-2, “Yes”; in the test on MV-4-11, “No”. The “Synergy analysis for combinations” value was “Yes” in the test with OCT-AML-3, “Yes” in the test with NOMO-1, “No” with ML-2 and “Yes” with F-36-P.

Take `CO[C@H]1/C=C\C=C(/C)C(=O)NC2=CC(=O)C(NCCN(C)C)=C(C[C@@H](C)C[C@H](OC)[C@H](O)[C@@H](C)/C=C(\C)[C@@H]1OC(N)=O)C2=O` [Alvespimycin]: the “Synergy analysis for combinations” value with KG-1 is listed as “No”; in the test with HNT-34, “No”; in the test with MOLM-13 it was “No”; in the test on HL-60, “No”; in the test with OCI-AML-2, “Yes”; in the test with MV-4-11 it was “Yes”. The “Synergy analysis for combinations” value in the test on OCT-AML-3, with NOMO-1, with ML-2 and in the test with F-36-P was “No” each time.

Take `CCN1C(=O)CNc2ncc(-c3ccc(-c4nc[nH]n4)nc3C)nc21` [CC-115, 1-ethyl-7-(2-methyl-6-(1H-1,2,4-triazol-3-yl)pyridin-3-yl)-3,4-dihydropyrazino[2,3-b]pyrazin-2(1H)-one, reference compound]: the “Synergy analysis for combinations” value in the test on KG-1 was “No”; in the test with HNT-34, “Yes”; with MOLM-13, “Yes”; in the test with HL-60 it was “No”; in the test on OCI-AML-2, “Yes”; in the test with MV-4-11, “Yes”. Moreover, the “Synergy analysis for combinations” value with OCT-AML-3, in the test with NOMO-1, in the test on ML-2 and with F-36-P was “Yes” throughout.

Regarding `CO[C@H]1CC[C@H](N2C(=O)CNc3ncc(-c4ccc(C(C)(C)O)nc4)nc32)CC1` [CC-223, 7-(6-(2-hydroxypropan-2-yl)pyridin-3-yl)-1-((trans)-4-methoxycyclohexyl)-3,4-dihydropyrazino[2,3-b]pyrazin-2(1H)-one, reference compound], the “Synergy analysis for combinations” value with KG-1 is listed as “No”; in the test with HNT-34, “No”; in the test on MOLM-13, “Yes”; in the test with HL-60, “No”; with OCI-AML-2, “Yes”; in the test on MV-4-11 it was “Yes”. The “Synergy analysis for combinations” value in the test on OCT-AML-3, with NOMO-1, with ML-2 and with F-36-P was “Yes” each time.

For `CC(C)C[C@H](NC(=O)[C@@H](NC(=O)c1cccc(-c2ccccc2)n1)[C@@H](C)O)B(O)O` [CEP-18770], the “Synergy analysis for combinations” value in the test on KG-1, in the test on HNT-34, in the test on MOLM-13, with HL-60, in the test with OCI-AML-2 and in the test on MV-4-11 was “No” throughout. Besides, the “Synergy analysis for combinations” value in the test on OCT-AML-3, with NOMO-1, in the test with ML-2 and with F-36-P was “No” in each case.

On to `CC(C)C[C@H](NC(=O)[C@H](CCc1ccccc1)NC(=O)CN1CCOCC1)C(=O)N[C@@H](Cc1ccccc1)C(=O)N[C@@H](CC(C)C)C(=O)[C@@]1(C)CO1` [Carfilzomib], for which the “Synergy analysis for combinations” value with KG-1, with HNT-34, in the test with MOLM-13, with HL-60, in the test with OCI-AML-2 and with MV-4-11 was “No” throughout. Moreover, the “Synergy analysis for combinations” value in the test with OCT-AML-3, in the test on NOMO-1, with ML-2 and in the test on F-36-P was “No” in each case.

As for `Cn1cc(-c2cc(S(C)(=O)=O)ccc2OCC2CC2)c2ccccc2c1=O` [Compound A, 4-[2-(cyclopropylmethoxy)-5-(methanesulfonyl)phenyl]-2-methylisoquinolin-1(2H)-one, reference compound], the “Synergy analysis for combinations” value is recorded as “No” with KG-1; “No” in the test with HNT-34; “Yes” with MOLM-13; “No” with HL-60; “Yes” in the test on OCI-AML-2; “No” with MV-4-11. For the same molecule, the “Synergy analysis for combinations” value with OCT-AML-3, with NOMO-1, in the test on ML-2 and in the test with F-36-P was “Yes” in each case.

As to `COc1ccc(-c2c(-c3ccc(C#N)c(F)c3)nc(N3CCC(N)CC3)n(C)c2=O)cc1F` [Compound B, 4-[2-(4-amino-piperidin-1-yl)-5-(3-fluoro-4-methoxy-phenyl)-1-methyl-6-oxo-1,6-dihydropyrimidin-4-yl]-2-fluoro-benzonitrile, reference compound], the “Synergy analysis for combinations” value in the test on KG-1 is recorded as “No”; with HNT-34, “No”; in the test with MOLM-13, “Yes”; in the test with HL-60, “No”; in the test with OCI-AML-2, “No”; with MV-4-11, “No”. The “Synergy analysis for combinations” value in the test on OCT-AML-3 is reported as “No”; in the test on NOMO-1, “No”; in the test with ML-2, “No”; with F-36-P, “Yes”.

Consider `C[C@@H]1C[C@H]2[C@@H]3CCC4=CC(=O)C=C[C@]4(C)[C@@]3(F)[C@@H](O)C[C@]2(C)[C@@]1(O)C(=O)CO` [Dexamethason], for which the “Synergy analysis for combinations” value with KG-1, in the test with HNT-34, in the test on MOLM-13, with HL-60, in the test with OCI-AML-2 and in the test on MV-4-11 was “No” throughout. In addition, the “Synergy analysis for combinations” value with OCT-AML-3 was “No”; in the test on NOMO-1, “Yes”; with ML-2, “No”; with F-36-P, “No”.

Regarding `CC(C)C[C@H](NC(=O)CNC(=O)c1cc(Cl)ccc1Cl)B(O)O` [Ixazomib], the “Synergy analysis for combinations” value with KG-1, with HNT-34, in the test on MOLM-13, with HL-60, in the test with OCI-AML-2 and in the test on MV-4-11 was “No” each time. In addition, the “Synergy analysis for combinations” value in the test with OCT-AML-3, with NOMO-1, in the test with ML-2 and with F-36-P was “No” throughout.

As to `CC(C)n1nc(-c2ccc3oc(N)nc3c2)c2c(N)ncnc21` [MLN-0128], the “Synergy analysis for combinations” value is “No” in the test with KG-1; “No” in the test on HNT-34; “Yes” in the test on MOLM-13; “No” in the test on HL-60; “Yes” in the test on OCI-AML-2; “No” in the test on MV-4-11. For the same molecule, the “Synergy analysis for combinations” value in the test with OCT-AML-3 is given as “No”; in the test with NOMO-1, “No”; in the test with ML-2 it was “No”; in the test with F-36-P it was “Yes”.

The values are drawn from patent publication US20190030018A1 (Celgene Corporation, priority 2017, published 2019).
